Results reported in patent US11337964B2, “Isoindoline derivative, pharmaceutical composition and use thereof” (Kangpu Biopharmaceuticals, Ltd., priority 2017, dated 2022).

Legend:
Format in all cases: biochemical
Conditions in all cases: FAM-cAMP substrate, 30 minutes at room temperature
[1] = molecular target: T1, PDE4A1A (Homo sapiens, UniProt P27815); assay: PDE4 activity inhibition assay, PDE4A1A
T1 construct: purchased BPS 60040
Procedure: (§1) The IC50 value of the inhibitory effect of the compound on PDE4A1A, PDE4B1 and PDE4D3 was tested.
(§2) Positive compound: Trequinsin (Sigma, Cat. No. T2057).
(§3) Equipment: Wallac Victor Multi-label counter (Perkin Elmer).
(§4) I. Preparing 1× reaction liquid and termination liquid;
(§5) II. PDE enzymatic reaction; • 1) The PDE was dissolved in 1× reaction solution to form 2× enzyme solution. • 2) FAM-cAMP was dissolved in 1× reaction solution to form 2× substrate solution. • 3) Echo 550 was used to transfer the corresponding volume of the compound in DMSO solution to the reaction plate. • 4) 2× enzyme solution was added into the corresponding well of the reaction plate and incubated with the compound solution at room temperature for 15 minutes. • 5) 2× substrate solution was added into the corresponding well of the reaction plate to initiate the reaction. • 6) Reaction plate was incubated at room temperature for 30 minutes and terminated by adding termination liquid, then incubated at room temperature for 60 minutes.
(§6) The inhibition rate was calculated by Excel; IC50 was calculated by GraphPad Prism.

[2] = molecular target: T2, PDE4D3 (Homo sapiens, UniProt Q08499); assay: PDE4 activity inhibition assay, PDE4D3
T2 construct: purchased BPS 60046
Procedure: as §1, §2, §3, §4, §5, §6

[3] = molecular target: T3, PDE4B1 (Homo sapiens, UniProt Q07343); assay: PDE4 activity inhibition assay, PDE4B1
T3 construct: purchased BPS 60041
Procedure: as §1, §2, §3, §4, §5, §6

T1 sequence (P27815 1-647 isoform P27815-4): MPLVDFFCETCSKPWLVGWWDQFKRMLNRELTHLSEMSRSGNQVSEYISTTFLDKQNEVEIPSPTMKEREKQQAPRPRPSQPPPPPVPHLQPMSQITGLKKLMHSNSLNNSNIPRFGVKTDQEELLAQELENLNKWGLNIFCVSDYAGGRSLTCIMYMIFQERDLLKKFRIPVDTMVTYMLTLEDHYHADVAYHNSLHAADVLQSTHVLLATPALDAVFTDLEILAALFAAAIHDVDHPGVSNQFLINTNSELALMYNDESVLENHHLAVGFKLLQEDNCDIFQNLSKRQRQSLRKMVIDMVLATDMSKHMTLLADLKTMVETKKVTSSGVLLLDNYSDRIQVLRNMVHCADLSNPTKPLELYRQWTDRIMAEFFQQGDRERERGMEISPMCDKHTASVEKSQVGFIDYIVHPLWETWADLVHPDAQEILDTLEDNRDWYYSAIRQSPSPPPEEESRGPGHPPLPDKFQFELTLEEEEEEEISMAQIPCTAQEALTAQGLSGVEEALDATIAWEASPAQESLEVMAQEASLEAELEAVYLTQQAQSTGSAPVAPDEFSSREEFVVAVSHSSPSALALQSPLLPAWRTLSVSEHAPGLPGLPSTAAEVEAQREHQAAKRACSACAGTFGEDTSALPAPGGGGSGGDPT
T3 sequence (Q07343 whole entry): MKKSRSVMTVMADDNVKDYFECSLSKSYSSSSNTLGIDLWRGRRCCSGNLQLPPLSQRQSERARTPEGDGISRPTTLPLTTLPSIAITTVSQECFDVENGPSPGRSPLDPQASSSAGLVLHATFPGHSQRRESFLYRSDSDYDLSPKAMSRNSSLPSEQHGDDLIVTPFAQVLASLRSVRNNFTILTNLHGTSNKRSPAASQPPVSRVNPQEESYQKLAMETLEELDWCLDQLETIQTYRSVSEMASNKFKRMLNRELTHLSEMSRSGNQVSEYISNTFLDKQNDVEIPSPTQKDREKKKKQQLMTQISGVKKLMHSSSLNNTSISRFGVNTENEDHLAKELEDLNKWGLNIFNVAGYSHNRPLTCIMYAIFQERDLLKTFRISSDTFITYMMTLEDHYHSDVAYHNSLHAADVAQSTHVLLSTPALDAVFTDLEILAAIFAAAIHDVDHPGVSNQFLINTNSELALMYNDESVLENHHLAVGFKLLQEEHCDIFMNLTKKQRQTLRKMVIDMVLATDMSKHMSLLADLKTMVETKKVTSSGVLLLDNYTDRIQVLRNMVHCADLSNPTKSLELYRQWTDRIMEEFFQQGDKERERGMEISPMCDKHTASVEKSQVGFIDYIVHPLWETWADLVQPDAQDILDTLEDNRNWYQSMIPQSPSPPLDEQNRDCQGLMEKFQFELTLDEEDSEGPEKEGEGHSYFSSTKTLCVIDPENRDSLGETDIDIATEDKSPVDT
T2 sequence (Q08499 1-673 isoform Q08499-2): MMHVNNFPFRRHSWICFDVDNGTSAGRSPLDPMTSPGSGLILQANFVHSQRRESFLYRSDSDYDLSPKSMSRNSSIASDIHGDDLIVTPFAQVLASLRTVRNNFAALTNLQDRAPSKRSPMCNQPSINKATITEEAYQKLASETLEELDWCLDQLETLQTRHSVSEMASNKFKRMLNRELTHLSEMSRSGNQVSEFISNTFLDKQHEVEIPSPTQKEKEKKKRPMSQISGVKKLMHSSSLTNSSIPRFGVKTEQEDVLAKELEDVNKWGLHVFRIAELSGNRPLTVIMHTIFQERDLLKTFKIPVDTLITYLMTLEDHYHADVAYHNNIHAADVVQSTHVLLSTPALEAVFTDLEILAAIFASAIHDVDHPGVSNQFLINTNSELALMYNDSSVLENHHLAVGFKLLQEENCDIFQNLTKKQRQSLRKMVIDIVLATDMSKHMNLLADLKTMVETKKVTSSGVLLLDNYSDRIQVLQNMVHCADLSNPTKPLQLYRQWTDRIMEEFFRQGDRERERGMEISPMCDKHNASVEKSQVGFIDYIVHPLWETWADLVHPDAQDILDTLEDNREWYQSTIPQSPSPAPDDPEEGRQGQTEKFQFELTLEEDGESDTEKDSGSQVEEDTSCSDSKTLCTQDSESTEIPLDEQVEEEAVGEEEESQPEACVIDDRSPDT

| IC50 [1] | IC50 [2] | IC50 [3] | SMILES |
| --- | --- | --- | --- |
| 17 nM | 12 nM | 27 nM | CCOc1cc(C(CS(C)(=O)=O)N2C(=O)c3c(F)ccc(NC(C)=O)c3C2=O)ccc1OC (stereo not drawn) [Compound 101, N-(2-(1-(3-ethoxy-4-methoxyphenyl)-2-(methylsulfonyl)ethyl)-7-fluoro-1,3-dioxoisoindolin-4-yl)acetamide] |
| 11 nM | 7.4 nM | 14 nM | CCOc1cc([C@@H](CS(C)(=O)=O)N2C(=O)c3c(F)ccc(NC(C)=O)c3C2=O)ccc1OC [Compound 102, (S)—N-(2-(1-(3-ethoxy-4-methoxyphenyl)-2-(methylsulfonyl)ethyl)-7-fluoro-1,3-dioxoisoindolin-4-yl)acetamide] |
| 53 nM | 31 nM | 70 nM | [2H]C([2H])([2H])Oc1ccc([C@H](CS(C)(=O)=O)N2C(=O)c3c(F)ccc(NC(C)=O)c3C2=O)cc1OCC [Compound 104, (R)—N-(2-(1-(3-ethoxy-4-d3-methoxyphenyl)-2-(methylsulfonyl)ethyl)-7-fluoro-1,3-dioxoisoindolin-4-yl)acetamide] |
| 61 nM | 41 nM | 97 nM | [2H]C([2H])([2H])Oc1ccc([C@@H](CS(C)(=O)=O)N2C(=O)c3c(F)ccc(NC(C)=O)c3C2=O)cc1OC([2H])([2H])[2H] [Compound 105, (S)—N-(2-(1-(3,4-d6-dimethoxyphenyl)-2-(methylsulfonyl)ethyl)-7-fluoro-1,3-dioxoisoindolin-4-yl)acetamide] |
| 340 nM | 300 nM | 493 nM | [2H]C([2H])([2H])Oc1ccc([C@H](CS(C)(=O)=O)N2C(=O)c3c(F)ccc(NC(C)=O)c3C2=O)cc1OC([2H])([2H])[2H] [Compound 106, (R)—N-(2-(1-(3,4-d6-dimethoxyphenyl)-2-(methylsulfonyl)ethyl)-7-fluoro-1,3-dioxoisoindolin-4-yl)acetamide] |
| 8.3 nM | 4.6 nM | 12 nM | [2H]C([2H])([2H])Oc1ccc([C@@H](CS(C)(=O)=O)N2C(=O)c3c(F)ccc(NC(C)=O)c3C2=O)cc1OC([2H])([2H])C([2H])([2H])[2H] [Compound 107, (S)—N-(2-(1-(3-d5-ethoxy-4-d3-methoxyphenyl)-2-(methylsulfonyl)ethyl)-7-fluoro-1,3-dioxoisoindolin-4-yl)acetamide] |
| 1.3 nM | 1.9 nM | 4.3 nM | CCOc1cc([C@@H](CS(C)(=O)=O)N2C(=O)c3c(Cl)ccc(NC(C)=O)c3C2=O)ccc1OC [Compound 111, (S)—N-(7-chloro-2-(1-(3-ethoxy-4-methoxyphenyl)-2-(methylsulfonyl)ethyl)-1,3-dioxoisoindolin-4-yl)acetamide] |
| 2.1 nM | 1.3 nM | 5.1 nM | [2H]C([2H])([2H])Oc1ccc([C@@H](CS(C)(=O)=O)N2C(=O)c3c(Cl)ccc(NC(C)=O)c3C2=O)cc1OCC [Compound 113, (S)—N-(7-chloro-2-(1-(3-ethoxy-4-d3-methoxyphenyl)-2-(methylsulfonyl)ethyl)-1,3-dioxoisoindolin-4-yl)acetamide] |
| 6 nM | 5.7 nM | 17.3 nM | CCOc1cc([C@@H](CS(C)(=O)=O)N2C(=O)c3c(C#N)ccc(NC(C)=O)c3C2=O)ccc1OC [Compound 115, (S)—N-(7-cyano-2-(l 1-(3-ethoxy-4-methoxyphenyl)-2-(methylsulfonyl)ethyl)-1,3-dioxoisoindolin-4-yl)acetamide] |
| 5.1 nM | 2.5 nM | 8.7 nM | [2H]C([2H])([2H])Oc1ccc([C@@H](CS(C)(=O)=O)N2C(=O)c3c(F)ccc(NC(=O)C4CC4)c3C2=O)cc1OCC [Compound 118, (S)—N-(2-(1-(3-ethoxy-4-d3-methoxyphenyl)-2-(methylsulfonyl)ethyl)-7-fluoro-1,3-dioxoisoindolin-4-yl)cyclopropanecarboxamide] |
| 7.6 nM | 4.9 nM | 11 nM | [2H]C([2H])([2H])Oc1ccc([C@@H](CS(C)(=O)=O)N2C(=O)c3cccc(NC(=O)C4CC4)c3C2=O)cc1OCC [Compound 120, (S)—N-(2-(1-(3-ethoxy-4-d3-methoxyphenyl)-2-(methylsulfonyl)ethyl)-1,3-dioxoisoindolin-4-yl)cyclopropanecarboxamide] |
| 3.4 nM | 0.9 nM | 7 nM | CCOc1cc(C(CS(C)(=O)=O)N2C(=O)c3c(F)ccc(NC(C)=O)c3C2=O)ccc1OC(F)F (stereo not drawn) [Compound 121, N-(2-(1-(4-(difluoromethoxy)-3-ethoxyphenyl)-2-(methylsulfonyl)ethyl)-7-fluoro-1,3-dioxoisoindolin-4-yl)acetamide] |
| 39 nM | 25 nM | 41 nM | CCOc1cc(C(CS(C)(=O)=O)N2C(=O)c3cc(F)cc(NC(C)=O)c3C2=O)ccc1OC (stereo not drawn) [Compound 201, N-(2-(1-(3-ethoxy-4-methoxyphenyl)-2-(methylsulfonyl)ethyl)-6-fluoro-1,3-dioxoisoindolin-4-yl)acetamide] |
| 11 nM | 5.4 nM | 11 nM | CCOc1cc([C@@H](CS(C)(=O)=O)N2C(=O)c3cc(F)cc(NC(C)=O)c3C2=O)ccc1OC [Compound 202, (S)—N-(2-(1-(3-ethoxy-4-methoxyphenyl)-2-(methylsulfonyl)ethyl)-6-fluoro-1,3-dioxoisoindolin-4-yl)acetamide] |
| 133 nM | 83 nM | 157 nM | [2H]C([2H])([2H])Oc1ccc([C@H](CS(C)(=O)=O)N2C(=O)c3cc(F)cc(NC(C)=O)c3C2=O)cc1OCC [Compound 204, (R)—N-(2-(1-(3-ethoxy-4-d3-methoxyphenyl)-2-(methylsulfonyl)ethyl)-6-fluoro-1,3-dioxoisoindolin-4-yl)acetamide] |
| 123 nM | 79 nM | 165 nM | [2H]C([2H])([2H])Oc1ccc([C@@H](CS(C)(=O)=O)N2C(=O)c3cc(F)cc(NC(C)=O)c3C2=O)cc1OC([2H])([2H])[2H] [Compound 205, (S)—N-(2-(1-(3,4-d6-dimethoxyphenyl)-2-(methylsulfonyl)ethyl)-6-fluoro-1,3-dioxoisoindolin-4-yl)acetamide] |
| 1460 nM | 997 nM | 1350 nM | [2H]C([2H])([2H])Oc1ccc([C@H](CS(C)(=O)=O)N2C(=O)c3cc(F)cc(NC(C)=O)c3C2=O)cc1OC([2H])([2H])[2H] [Compound 206, (R)—N-(2-(1-(3,4-d6-dimethoxyphenyl)-2-(methylsulfonyl)ethyl)-6-fluoro-1,3-dioxoisoindolin-4-yl)acetamide] |
| 20 nM | 12 nM | 20 nM | [2H]C([2H])([2H])Oc1ccc([C@@H](CS(C)(=O)=O)N2C(=O)c3cc(F)cc(NC(C)=O)c3C2=O)cc1OC([2H])([2H])C([2H])([2H])[2H] [Compound 207, (S)—N-(2-(1-(3-d5-ethoxy-4-d3-methoxyphenyl)-2-(methylsulfonyl)ethyl)-6-fluoro-1,3-dioxoisoindolin-4-yl)acetamide] |
| 102 nM | 65 nM | 116 nM | CCOc1cc(C(CS(C)(=O)=O)N2C(=O)c3ccc(F)c(NC(C)=O)c3C2=O)ccc1OC (stereo not drawn) [Compound 301, N-(2-(1-(3-ethoxy-4-methoxyphenyl)-2-(methylsulfonyl)ethyl)-5-fluoro-1,3-dioxoisoindolin-4-yl)acetamide] |
| 33 nM | 22 nM | 41 nM | CCOc1cc([C@@H](CS(C)(=O)=O)N2C(=O)c3ccc(F)c(NC(C)=O)c3C2=O)ccc1OC [Compound 302, (S)—N-(2-(1-(3-ethoxy-4-methoxyphenyl)-2-(methylsulfonyl)ethyl)-5-fluoro-1,3-dioxoisoindolin-4-yl)acetamide] |
| 182 nM | 110 nM | 211 nM | CCOc1cc(C(CS(C)(=O)=O)N2C(=O)c3ccnc(NC(C)=O)c3C2=O)ccc1OC (stereo not drawn) [Compound 401, N-(2-(1-(3-ethoxy-4-methoxyphenyl)-2-(methylsulfonyl)ethyl)-1,3-dioxo-2,3-dihydro-1H-pyrrolo[3,4-c]pyridin-4-yl)acetamide] |
| 206 nM | 107 nM | 513 nM | CCOc1cc([C@@H](CS(C)(=O)=O)N2C(=O)c3cncc(NC(C)=O)c3C2=O)ccc1OC [Compound 502, (S)—N-(2-(1-(3-ethoxy-4-methoxyphenyl)-2-(methylsulfonyl)ethyl)-1,3-dioxo-2,3-dihydro-1H-pyrrolo[3,4-c]pyridin-7-yl)acetamide] |
| 273 nM | 201 nM | 390 nM | CCOc1cc(C(CS(C)(=O)=O)N2C(=O)c3nccc(NC(C)=O)c3C2=O)ccc1OC (stereo not drawn) [Compound 601, N-(6-(1-(3-ethoxy-4-methoxyphenyl)-2-(methylsulfonyl)ethyl)-5,7-dioxo-6,7-dihydro-5H-pyrrolo[3,4-b]pyridin-4-yl)acetamide] |
| 2.5 nM | 2.1 nM | 3.5 nM | CCOc1nc(C(CS(C)(=O)=O)N2C(=O)c3cccc(NC(C)=O)c3C2=O)ccc1OC (stereo not drawn) [Compound 701, N-(2-(1-(6-ethoxy-5-methoxypyridin-2-yl)-2-(methylsulfonyl)ethyl)-1,3-dioxoisoindolin-4-yl)acetamide] |
